How the values were obtained:
Assay in all cases: Bliss interaction score (quartile over a dose matrix) (fitness difference); higher = more antagonism (negative = synergy)
S. aureus Newman = system: S. aureus Newman
Outline: (§1)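 Growth in each well was taken as OD595 at entry into stationary phase. Dividing by the plate's robust no-drug mean and capping at 1 gave fitness, and single-drug fitness was inferred from the combination data. The Bliss score, observed minus product-expected fitness, is summarised by quartiles over technical, biological and donor/recipient replicates.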

S. pneumoniae D39V = system: S. pneumoniae D39V
Outline: as §1

S. aureus DSM 20231 = system: S. aureus DSM 20231
Outline: as §1

B. subtilis 168 = system: B. subtilis 168
Outline: as §1
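Also: first quartile when negative (synergy) and third quartile when positive (antagonism).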

Row | SMILES | Bliss interaction score (S. aureus Newman) | Bliss interaction score (S. pneumoniae D39V) | Bliss interaction score (S. aureus DSM 20231) | Bliss interaction score (B. subtilis 168)
1 | CC1(C)S[C@@H]2[C@H](NC(=O)[C@H](N)c3ccc(O)cc3)C(=O)N2[C@H]1C(=O)O [Amoxicillin] + CC[C@H]1OC(=O)[C@H](C)C(=O)[C@H](C)[C@@H](O[C@@H]2O[C@H](C)C[C@H](N(C)C)[C@H]2O)[C@](C)(OC)C[C@@H](C)C(=O)[C@H](C)[C@H]2N(CCCCn3cnc(-c4cccnc4)c3)C(=O)O[C@]12C [Telithromycin] | -0.0609 | 0.0336 | -0.0292 | -0.0851
2 | C[C@H]1COc2c(N3CCN(C)CC3)c(F)cc3c(=O)c(C(=O)O)cn1c23 [Levofloxacin] + CC1(C)S[C@@H]2[C@H](NC(=O)Cc3ccccc3)C(=O)N2[C@H]1C(=O)O [PenicillinG] | -0.0602 | -0.103 | 0.0432 | 0.0528
3 | CO/N=C(\C(=O)N[C@@H]1C(=O)N2C(C(=O)[O-])=C(C[N+]3(C)CCCC3)CS[C@H]12)c1csc(N)n1 [Cefepime] + Oc1cc(Cl)ccc1Oc1ccc(Cl)cc1Cl [Triclosan] | -0.0285 | -0.0485 | 0.0725 | 0.0502
4 | CC1(C)S[C@@H]2[C@H](NC(=O)[C@H](N)c3ccc(O)cc3)C(=O)N2[C@H]1C(=O)O [Amoxicillin] + N[C@@H]1CONC1=O [CycloserineD] | 0.035 | -0.108 | -0.0593 | 0.187
5 | Cn1nnc(-c2ccc(-c3ccc(N4C[C@H](CO)OC4=O)cc3F)cn2)n1 [Tedizolid] + Oc1cc(Cl)ccc1Oc1ccc(Cl)cc1Cl [Triclosan] | 0.037 | -0.075 | -0.153 | 0.0378
6 | CCCCCCCCCC(=O)N[C@@H](Cc1c[nH]c2ccccc12)C(=O)N[C@H](CC(N)=O)C(=O)N[C@@H](CC(=O)O)C(=O)N[C@@H]1C(=O)NCC(=O)N[C@@H](CCCN)C(=O)N[C@@H](CC(=O)O)C(=O)N[C@H](C)C(=O)N[C@@H](CC(=O)O)C(=O)NCC(=O)N[C@H](CO)C(=O)N[C@@H]([C@H](C)CC(=O)O)C(=O)N[C@@H](CC(=O)c2ccccc2N)C(=O)O[C@@H]1C [Daptomycin] + Oc1cc(Cl)ccc1Oc1ccc(Cl)cc1Cl [Triclosan] | -0.0264 | 0.0768 | 0.0576 | -0.0488
7 | CC1(C)S[C@@H]2[C@H](NC(=O)[C@H](N)c3ccc(O)cc3)C(=O)N2[C@H]1C(=O)O [Amoxicillin] + CN[C@H](CC(C)C)C(=O)N[C@H]1C(=O)N[C@@H](CC(N)=O)C(=O)N[C@H]2C(=O)N[C@H]3C(=O)N[C@H](C(=O)N[C@H](C(=O)O)c4cc(O)cc(O)c4-c4cc3ccc4O)[C@H](O[C@H]3C[C@](C)(N)[C@@H](O)[C@H](C)O3)c3ccc(c(Cl)c3)Oc3cc2cc(c3O[C@@H]2O[C@H](CO)[C@@H](O)[C@H](O)[C@H]2O[C@H]2C[C@](C)(NCc3ccc(-c4ccc(Cl)cc4)cc3)[C@@H](O)[C@H](C)O2)Oc2ccc(cc2Cl)[C@H]1O [Oritavancin] | 0.131 | -0.0312 | 0.0659 | 0.0439
8 | Cn1nnc(-c2ccc(-c3ccc(N4C[C@H](CO)OC4=O)cc3F)cn2)n1 [Tedizolid] + COc1cc(Cc2cnc(N)nc2N)cc(OC)c1OC [Trimethoprim] | 0.136 | -0.0785 | 0.215 | 0.0776
9 | CO/N=C(\C(=O)N[C@@H]1C(=O)N2C(C(=O)[O-])=C(C[N+]3(C)CCCC3)CS[C@H]12)c1csc(N)n1 [Cefepime] + O=C(N[C@H](CO)[C@H](O)c1ccc([N+](=O)[O-])cc1)C(Cl)Cl [Chloramphenicol] | 0.0591 | 0.149 | 0.158 | 0.109
10 | CN(C)C(=O)C(CCN1CCC(O)(c2ccc(Cl)cc2)CC1)(c1ccccc1)c1ccccc1 [Loperamide] + CO[C@@]12[C@H](COC(N)=O)C3=C(C(=O)C(C)=C(N)C3=O)N1C[C@@H]1N[C@@H]12 [MitomycinC] | -0.031 | 0.105 | 0.101 | 0.0277
